From US20060135569A1, “Use of benzisoselenazolone compounds against ischemic myocardial damage” (priority 2002, published 2006)
Marks after values point to notes of the source that are not given here.

Tests used:
[1] = tested on: acute myocardial ischemia in anesthetized dogs; experiment: Acute myocardial ischemia and infarction in anesthetized dogs; assay type: in vivo, dog
Description: Dogs were divided into three groups: 1, vehicle control group, PEG 1 ml/kg, n=5; 2, dilthiazem group, 5 mg/kg, n=5; 3, IMM-004 group, 30 mg/kg, n=5. The tested drugs were prepared in distilled water at volume of 1 ml/kg. The tested items were administrated via duodenum by animals.

[2] = tested on: arrhythmia caused by ischemia/reperfusion insults in anaesthetic rats; experiment: Ischemia/reperfusion arrhythmia in anaesthetic rats, intravenous injection; assay type: in vivo, rat; conditions: 3 mg/Kg intravenous (femoral vein), rats
Text: (1) Protective Effects of the Tested Compounds on Myocardial Insults in Rats after Intravenously Injection
Arrhythmic potency induced by myocardial insults was used to assess the potential protective effect of the compounds.

[3] = tested on: TA100; experiment: Ames test, strain TA100; assay type: cell-based
Description: (§1) To assess the mutagenic effects of 5 compounds (IMM-004; IMM-065; IMM-127; IMM-128; IMM-313), the Ames test was performed in 4 strains (TA97; TA98; TA100; TA102). The experiment was conducted with compounds at 4 concentration levels (0.5, 5, 50 and 500 μg/dish). […]

[4] = biological target: T1, Na^+/Ca^2+ exchanger (Cavia porcellus, UniProt P48766); experiment: Na^+/Ca^2+ exchange current (INa—Ca), whole-cell patch clamp, intracellular Na^+ overload cell model; assay type: cell-based, guinea pig
T1 construct: endogenous in cells; host or cells: freshly isolated guinea pig ventricular myocytes
Text: 1. Establishment of Assaying Method for Biphasical Current Detection in Na^+/Ca^2+ Exchange System
Since the reverse mode of Na^+/Ca^2+ exchange process is one of the main mechanisms involving in ischemia/reperfusion insult, it is of great importance to establish cell model represented reverse mode Na^+/Ca^2+ exchange process for the development of drugs against ischemic injury. Therefore, we successfully established cell model of reverse mode Na^+/Ca^2+ exchange system by intracellular Na^+ dialysis technique, and recorded Na^+/Ca^2+ exchange currents by patch clamp experiment.
Internal solution contained certain concentration of NaCl was filled to the microcatheter, and ion exchange process between the cellular and internal solutions was conducted after whole cell currents were recorded by patch clamp. Na^+ contained in the internal solution was dialyzed into the cell; result in the high intracellular Na^+ concentration. After that, the cell was champed at a holding potential of −40 mV, then depolarized to +60 mV and followed by a conversely declining ramp stimuli at a speed of 80 mV·s^−1 and 2 s conditioning pulse, then repolarized to −100 mV with a frequency of 0.05 Hz. Under the stimulation protocol, current from outward to the inward direction was recorded by perfusing modified biphasical Tyrode solution (in which the outward and inward currents can be recorded simultaneously) with the addition of 1 mmol·L^−1 of BaCl2 and 2 mmol·L^−1 of CsCl to block K^+ channels, 1 μmol·L^−1 of verapamil to block L-type Ca^2+ channels, and 20 μmol·L^−1 of ouabain to block Na^+/K^+ ATPase, and 20 mmol·L^−1 of TEA to block potassium channels. The recorded inward currents were presented in a linear manner owing to the blockade of other time-dependent currents. With the increase of intracellular Na^+ level and prolongation of time, the reverse mode of Na^+/Ca^2+ exchange process was activated. […] Under such experimental conditioning, the maximum reverse mode current was recorded 3 min after cell crushed. No significant “run-down” was observed within the record period of 8 minutes. The inward and outward current were inhibited by 5 mmol·L^−1 of Ni^2+ treatment, and the experiment result in two current-voltage curves in the absence or presence of Ni^2+. The Ni^2+ sensitive current, also called electrophysiological Na^+/Ca^2+ exchange current (INa·Ca), was the minus result of two current-voltage curves. The reverse mode potential of INa—Ca was about −20 mV
Male guinea pigs weighting 250˜280 g provided by the Animal Center of the Chinese Academy of Medical Sciences were hammered and sacrificed. The chest was opened and the heart was removed quickly. Fatty tissue and pericardium were removed in a Ca^2+-free solution at 4° C., and heart was sequentially mounted on a Langendorff apparatus. First, the heart was perfused conversely via the aorta for 6 min with Ca^2+-free solution in order to wash out residual blood, then the heart expands and the color of it turns to pink. Then the heart was perfused with Ca^2+-free solution containing 0.1 mg/ml of pronase E, 0.5 mg/ml defatted bovine serum albumin (BSA) and 150 μM Ca^2+ for 2˜3 min, until the heart expanded and became soft. The atrium was removed, and the digested heart was minced with scissors, stirred in a beaker at 37° C. for 5˜10 min. The supernatant was diluted with Ca^2+-free solution containing 0.5 mg/ml BSA and 1.8 mM Ca^2+. The supernatant was placed at room temperature (20˜24° C.) for 1 hr and then subjected to the experiment. During the whole perfusion period, pressure was kept at 70 cmH2O and the temperature of solution was kept at 37° C. with continuously gassed with 95% O2 and 5% CO2.
Rod-shaped cells with clear striations and intact membrane were used. […]

[5] = tested on: isolated rat hearts subjected to ischemia-reperfusion (I/R); experiment: Isolated heart subjected to ischemia/reperfusion injury (arrhythmia); conditions: for AAT: arrhythmic occurrence time, Time / VF (ventricular fibrillation) Incidence rate (%) / VPS (ventricular premature beats) Incidence rate (%) / VT (ventricular tachycardia) Incidence rate (%): 10^−6 M, isolated heart ischemia/reperfusion
Description: Based on the pre-electrophysiological cell model screening, we have compared the inhibition ratios of the outward current by reverse-transportation of Na^+/Ca^2+ exchange, and further in vitro tests on isolated rat hearts subjected to ischemia-reperfusion (I/R) were conducted. Prolongation of ventricular arrhythmic, incidence rate of ventricular extrasystole, ventricular tachycardia/ventricular fibrillation (VT/VF) were recorded to evaluate the protective actions of drugs on myocardial injury.
On the basis of above screening results obtained from electrophysiological studies, and the result from comparative study on the research of the inhibitory effect of compounds on reverse mode Na^+/Ca^2+ exchange process, 7 effective compounds were subjected to in vitro study. Among which, IMM-313, IMM-004 and IMM-132 have structures containing chlorine; IMM-127, IMM-128 and IMM-129 have structures containing fluorine; and IMM-065 has a structure containing OH. The experiment performed in the isolated heart subjected to ischemia/reprefusion insult. Prolongation of ventricular arrhythmic, incidence of ventricular extrasystole, ventricular tachycardia/ventricular fibrillation (VT/VF) were recorded in order to evaluate the protective actions of drugs on myocardial injury.

[6] = tested on: TA97; experiment: Ames test, strain TA97; assay type: cell-based
Description: as §1

[7] = tested on: TA102; experiment: Ames test, strain TA102; assay type: cell-based
Description: as §1

[8] = tested on: TA97; TA98; TA100; TA102; experiment: Ames (mutagenesis) test, overall result in 4 strains; assay type: cell-based; conditions: 0.5, 5, 50 and 500 μg/dish
Description: as §1

[9] = tested on: TA98; experiment: Ames test, strain TA98; assay type: cell-based
Description: as §1

[10] = N-BT staining, Dilthiazem 5 mg/kg, IMM-004 30 mg/kg, % according to b137
[11] = Example 1 table, myocardial cell
[12] = screening of 22 candidate compounds

COc1ccc([C@@H]2Sc3ccccc3N(CCN(C)C)C(=O)[C@@H]2OC(C)=O)cc1 [Dilthiazem, reference compound]
blood oxygen concentration ([1]; 5 mg/kg): Significant increase
myocardial oxygen consumption ([1]; 5 mg/kg): decrease
severity of myocardial ischemia (Σ-ST), in words ([1]; 5 mg/kg via duodenum, from 90 min, lasted for 180 min after administration): reduced
Infarction area/ heart area [1, 10]: 1.54 ± 0.40
Infarction area/ventricle area [1, 10]: 3.54 ± 3.74
Infarction area mm^2 ([1]; N-BT staining, Dilthiazem 5 mg/kg, IMM-004 30 mg/kg, X ± SD): 186.50 ± 21.2*** mm^2
Myocardial infarction size, in words ([1]; N-BT staining, IMM-004 30 mg/kg, dilthiazem 5 mg/kg): significantly reduced
Coronary flows, in words ([1]; after treatment, dilthiazem 5 mg/kg, IMM-004 30 mg/kg): significantly increased

C/C(=N\O)c1ccc(-n2[se]c3ccccc3c2=O)cc1 [IMM-065]
incidence and duration of VT, VF, VE / ventricular arrhythmic [2]: no significant effect
TA100 +S9 ([3]; 0.5 μg/dish): 176.67 ± 24.57
TA100 −S9 ([3]; 0.5 μg/dish): 153.67 ± 13.47
TA100 +S9 ([3]; 5 μg/dish): 167.00 ± 58.86
TA100 −S9 ([3]; 5 μg/dish): 60.33 ± 19.91
TA100 +S9 ([3]; 50 μg/dish): 180.33 ± 29.83
TA100 −S9 ([3]; 50 μg/dish): 108.67 ± 6.79
TA100 +S9 ([3]; 500 μg/dish): 0
TA100 −S9 ([3]; 500 μg/dish): 62.33 ± 20.53
Inhibitory rate of inward INa—Ca (%) [4, 11]: 43%
Inhibitory rate of outward INa—Ca (%) [4, 11]: 55%
Inhibitory rate of inward INa—Ca (%) [4, 12]: 43%
Inhibitory rate of outward INa—Ca (%) [4, 12]: 55* %
protective effects on myocardial insults ([5]; 10^−6M, isolated heart): significant protective effects
AAT: arrhythmic occurrence time, Time [5]: 13.09 ± 3.76 min
VF (ventricular fibrillation) Incidence rate (%) [5]: 50%
VPS (ventricular premature beats) Incidence rate (%) [5]: 30%
VT (ventricular tachycardia) Incidence rate (%) [5]: 70%
TA97 +S9 ([6]; 0.5 μg/dish): 249.33 ± 35.83
TA97 −S9 ([6]; 0.5 μg/dish): 62.67 ± 4.49
TA97 +S9 ([6]; 5 μg/dish): 76.00 ± 15.29
TA97 −S9 ([6]; 5 μg/dish): 73.67 ± 6.64
TA97 +S9 ([6]; 50 μg/dish): 82.67 ± 12.92
TA97 −S9 ([6]; 50 μg/dish): 69.67 ± 3.77
TA97 +S9 ([6]; 500 μg/dish): 0
TA97 −S9 ([6]; 500 μg/dish): 59.67 ± 0.94
TA102 +S9 ([7]; 0.5 μg/dish): 270.00 ± 10.00
TA102 −S9 ([7]; 0.5 μg/dish): 244.00 ± 12.33
TA102 +S9 ([7]; 5 μg/dish): 308.00 ± 31.16
TA102 −S9 ([7]; 5 μg/dish): 246.00 ± 24.00
TA102 +S9 ([7]; 50 μg/dish): 339.33 ± 48.99
TA102 −S9 ([7]; 50 μg/dish): 217.33 ± 15.43
TA102 +S9 ([7]; 500 μg/dish): 287.33 ± 41.89
TA102 −S9 ([7]; 500 μg/dish): 215.00 ± 75.59
mutagenic effect (Ames test) [8]: No evidence for a mutagenic effect
TA98 +S9 ([9]; 0.5 μg/dish): 56.50 ± 4.50
TA98 −S9 ([9]; 0.5 μg/dish): 52.00 ± 3.74
TA98 +S9 ([9]; 5 μg/dish): 61.67 ± 11.15
TA98 −S9 ([9]; 5 μg/dish): 42.00 ± 10.80
TA98 +S9 ([9]; 50 μg/dish): 42.00 ± 5.72
TA98 −S9 ([9]; 50 μg/dish): 45.33 ± 5.44
TA98 +S9 ([9]; 500 μg/dish): 168.00 ± 32.00
TA98 −S9 ([9]; 500 μg/dish): 54.00 ± 12.83

O=c1c2cc(F)ccc2[se]n1-c1cccnc1 [IMM-128, 5-fluoro-2-(3-pyridyl)-1,2-benz-isoselenazol-3(2H)-one]
TA100 +S9 ([3]; 0.5 μg/dish): 167.33 ± 17.98
TA100 −S9 ([3]; 0.5 μg/dish): 127.33 ± 20.04
TA100 +S9 ([3]; 5 μg/dish): 149.67 ± 19.60
TA100 −S9 ([3]; 5 μg/dish): 116.50 ± 30.50
TA100 +S9 ([3]; 50 μg/dish): 141.33 ± 16.36
TA100 −S9 ([3]; 50 μg/dish): 135.00 ± 14.99
TA100 +S9 ([3]; 500 μg/dish): 107.67 ± 13.47
TA100 −S9 ([3]; 500 μg/dish): 100.00 ± 33.67
Inhibitory rate of inward INa—Ca (%) [4, 11]: 42%
Inhibitory rate of outward INa—Ca (%) [4, 11]: 44%
Inhibitory rate of inward INa—Ca (%) [4, 12]: 42%
Inhibitory rate of outward INa—Ca (%) [4, 12]: 44* %
AAT: arrhythmic occurrence time, Time [5]: 22.10 ± 3.49 min
VF (ventricular fibrillation) Incidence rate (%) [5]: 50%
VPS (ventricular premature beats) Incidence rate (%) [5]: 25%
VT (ventricular tachycardia) Incidence rate (%) [5]: 50%
TA97 +S9 ([6]; 0.5 μg/dish): 70.00 ± 11.86
TA97 −S9 ([6]; 0.5 μg/dish): 59.33 ± 10.27
TA97 +S9 ([6]; 5 μg/dish): 63.00 ± 31.00
TA97 −S9 ([6]; 5 μg/dish): 52.67 ± 3.21
TA97 +S9 ([6]; 50 μg/dish): 60.33 ± 17.59
TA97 −S9 ([6]; 50 μg/dish): 59.00 ± 3.56
TA97 +S9 ([6]; 500 μg/dish): 78.50 ± 21.50
TA97 −S9 ([6]; 500 μg/dish): 65.33 ± 2.35
TA102 +S9 ([7]; 0.5 μg/dish): 277.33 ± 15.17
TA102 −S9 ([7]; 0.5 μg/dish): 214.67 ± 8.22
TA102 +S9 ([7]; 5 μg/dish): 234.67 ± 80.37
TA102 −S9 ([7]; 5 μg/dish): 270.67 ± 12.04
TA102 +S9 ([7]; 50 μg/dish): 333.00 ± 60.83
TA102 −S9 ([7]; 50 μg/dish): 210.00 ± 31.54
TA102 +S9 ([7]; 500 μg/dish): 274.00 ± 37.98
TA102 −S9 ([7]; 500 μg/dish): 296.00 ± 22.86
mutagenic effect (Ames test) [8]: No evidence for a mutagenic effect
TA98 +S9 ([9]; 0.5 μg/dish): 40.67 ± 16.05
TA98 −S9 ([9]; 0.5 μg/dish): 64.00 ± 6.48
TA98 +S9 ([9]; 5 μg/dish): 46.00 ± 3.00
TA98 −S9 ([9]; 5 μg/dish): 69.33 ± 12.81
TA98 +S9 ([9]; 50 μg/dish): 56.00 ± 9.63
TA98 −S9 ([9]; 50 μg/dish): 71.33 ± 12.26
TA98 +S9 ([9]; 500 μg/dish): 31.33 ± 6.24
TA98 −S9 ([9]; 500 μg/dish): 83.67 ± 5.79
